1 compound from ChEMBL document CHEMBL1135940, “2-Amino-4-[3'-hydroxyphenyl]-4-hydroxybutanoic acid; a potent inhibitor of rat and recombinant human kynureninase” (Bioorg Med Chem Lett, 2002) can be followed below.

Test [1] concerns the target T1, Kynureninase (Homo sapiens, UniProt Q16719).
T1 sequence (Q16719 whole entry): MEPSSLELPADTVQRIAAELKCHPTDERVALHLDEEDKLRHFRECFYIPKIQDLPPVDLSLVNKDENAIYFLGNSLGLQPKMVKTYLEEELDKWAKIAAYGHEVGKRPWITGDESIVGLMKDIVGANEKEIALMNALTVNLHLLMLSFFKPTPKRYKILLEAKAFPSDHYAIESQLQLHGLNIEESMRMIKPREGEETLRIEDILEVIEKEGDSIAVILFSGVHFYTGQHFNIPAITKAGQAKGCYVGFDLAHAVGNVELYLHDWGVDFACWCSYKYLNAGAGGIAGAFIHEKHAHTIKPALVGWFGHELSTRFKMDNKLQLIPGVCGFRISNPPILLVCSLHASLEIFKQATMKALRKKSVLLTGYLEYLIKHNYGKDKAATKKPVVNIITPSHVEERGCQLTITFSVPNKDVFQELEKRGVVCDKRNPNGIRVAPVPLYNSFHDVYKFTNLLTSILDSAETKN
As to the kind of experiment: Tested for binding affinity against kynureninase enzyme from human.

Test [2] concerns the target T2, Kynureninase (Rattus norvegicus, UniProt P70712).
T2 sequence (P70712 whole entry): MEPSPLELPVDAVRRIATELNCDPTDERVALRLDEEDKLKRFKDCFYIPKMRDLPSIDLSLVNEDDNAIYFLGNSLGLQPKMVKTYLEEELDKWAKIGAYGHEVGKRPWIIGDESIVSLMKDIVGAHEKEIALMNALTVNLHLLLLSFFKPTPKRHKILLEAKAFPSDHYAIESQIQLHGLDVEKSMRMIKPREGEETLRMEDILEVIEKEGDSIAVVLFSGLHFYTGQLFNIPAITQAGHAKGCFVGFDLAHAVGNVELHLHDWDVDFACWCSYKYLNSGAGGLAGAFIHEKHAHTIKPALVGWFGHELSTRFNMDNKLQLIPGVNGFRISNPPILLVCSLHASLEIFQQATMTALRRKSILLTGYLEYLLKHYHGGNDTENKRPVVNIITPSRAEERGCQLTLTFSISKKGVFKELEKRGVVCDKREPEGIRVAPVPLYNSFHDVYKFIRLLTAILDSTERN
The test can be described thus: Tested for binding affinity against kynureninase enzyme from rat.

Usually Ki stands for a measure of affinity in units of concentration, obtained from inhibition or displacement.

Molecules are shown by their SMILES.

As for `NC(CC(O)c1cccc(O)c1)C(=O)O` (configuration not stated), the Ki at Kynureninase [1] amounted to 0.1 µM; at Kynureninase [2], 0.13 µM.
